Experiments:
Assay in all cases: relative viability (nuclei count vs DMSO), 5 days (fraction); higher = more cells survive
[1] = compound: O=C(/C=C/c1cccnc1)NCCCCC1CCN(C(=O)c2ccccc2)CC1 [Daporinad]
Method in brief: (§1)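 Five library-drug doses spaced by √10 were pinned onto vehicle-anchored 1536-well plates of lung cancer cell lines that had been kept overnight at 37 °C. Cells went 5 days without medium change, then were fixed, permeabilised and Hoechst-stained together, imaged at 4× and counted by MetaXpress. Viability is the ratio of treated-well to vehicle-well nuclei, taken as a median over plates. Plates required control CV below 25% and at least one doubling.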

[2] = compound: COc1cc(Nc2ncc(F)c(Nc3ccc4c(n3)NC(=O)C(C)(C)O4)n2)cc(OC)c1OC [R406]
Method in brief: as §1

[3] = compound: COc1cc(Nc2ncc(F)c(Nc3ccc4c(n3)NC(=O)C(C)(C)O4)n2)cc(OC)c1OC [R406] + CC(=O)Nc1cccc(-n2c(=O)n(C3CC3)c(=O)c3c(Nc4ccc(I)cc4F)n(C)c(=O)c(C)c32)c1 [Trametinib] (partner 0.02 µM)
Method in brief: (§2)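 A single step with final 0.05% Triton X-100, 1% formaldehyde and 1 ug/ml Hoechst fixed the cells and stained nuclei 5 days after treatment. Lung cancer cell lines in 1536-well plates had been treated by pin tool the day after seeding with one drug alone or a fixed anchor-drug dose plus five library-drug doses (not always all listed) in √10 steps, and nuclei were counted on 4× images. Relative viability is the ratio of nuclei in treated wells to nuclei in vehicle wells, taken as the median of duplicate plates.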

[4] = compound: O=C(/C=C/c1cccnc1)NCCCCC1CCN(C(=O)c2ccccc2)CC1 [Daporinad] + CC1(C)CCC(c2ccc(Cl)cc2)=C(CN2CCN(c3ccc(C(=O)NS(=O)(=O)c4ccc(N[C@H](CCN5CCOCC5)CSc5ccccc5)c(S(=O)(=O)C(F)(F)F)c4)cc3)CC2)C1 [Navitoclax] (partner 0.5 µM)
Method in brief: as §2

| Cell Line | relative viability ([1]; 0.0005 µM) | relative viability ([1]; 0.001581 µM) | relative viability ([1]; 0.005 µM) | relative viability ([1]; 0.01581 µM) | relative viability ([2]; 0.08 µM) | relative viability ([2]; 0.253 µM) | relative viability ([2]; 0.8 µM) | relative viability ([2]; 2.53 µM) | relative viability ([2]; 8 µM) | relative viability ([3]; first compound 0.08 µM) | relative viability ([3]; first compound 0.253 µM) | relative viability ([3]; first compound 0.8 µM) | relative viability ([3]; first compound 2.53 µM) | relative viability ([3]; first compound 8 µM) | relative viability ([4]; first compound 0.0005 µM) | relative viability ([4]; first compound 0.001581 µM) | relative viability ([4]; first compound 0.005 µM) | relative viability ([4]; first compound 0.01581 µM) |
| --- | --- | --- | --- | --- | --- | --- | --- | --- | --- | --- | --- | --- | --- | --- | --- | --- | --- | --- |
| LXF-289 | 0.959 | 1.1 | 1.09 | 1.1 | 0.976 | 1.06 | 1.04 | 0.956 | 0.845 | 0.675 | 0.694 | 0.68 | 0.67 | 0.672 | 0.868 | 0.951 | 0.971 | 1.02 |
| NCI-H23 | 1.03 | 1.06 | 0.973 | 0.53 | 0.948 | 1.21 | 1.1 | 0.264 | 0.252 | 0.288 | 0.376 | 0.444 | 0.399 | 0.128 | 0.83 | 0.637 | 0.658 | 0.447 |
| NCI-H322M | 0.906 | 1.05 | 0.936 | 0.751 | 0.889 | 0.922 | 0.939 | 0.542 | 0.405 | 0.515 | 0.532 | 0.452 | 0.475 | 0.421 | 1.25 | 1.43 | 1.25 | 0.995 |
| NCI-H441 | 0.898 | 1.13 | 1.18 | 1.07 | 0.903 | 1.16 | 1.31 | 0.424 | 0.611 | 0.462 | 0.452 | 0.539 | 0.283 | 0.184 | – | 0.609 | 0.815 | 0.559 |
| NCI-H460 | 0.996 | 1.02 | 0.953 | 1.02 | 0.965 | 1.11 | 1.09 | 0.966 | 0.766 | 0.0847 | 0.4 | 0.258 | 0.0114 | 0.0382 | 1.09 | 1.32 | 0.978 | 0.855 |
| NCI-H520 | 1.14 | 0.804 | 0.286 | 0.238 | 0.869 | 1.12 | 1.12 | 0.559 | 0.298 | 0.665 | 0.792 | 0.935 | 0.258 | 0.124 | 0.945 | 0.442 | 0.258 | 0.197 |
| NCI-H596 | 0.911 | 1.02 | 0.991 | 0.638 | 0.959 | 1.22 | 1.04 | 0.663 | 0.397 | 0.814 | 0.909 | 0.775 | 0.72 | 0.196 | 1.01 | 1.05 | 1.3 | 0.291 |
| NCI-H647 | 0.914 | 1.11 | 1.07 | 1.05 | 0.943 | 1.13 | 1.1 | 0.538 | 0.233 | 0.534 | 0.359 | 0.6 | 0.239 | 0.0884 | 1.03 | 1.27 | 1.25 | 1.14 |
| NCI-H727 | 0.931 | 1.06 | 1.06 | 0.884 | 0.817 | 0.888 | 0.964 | 0.806 | 0.668 | 0.416 | 0.344 | 0.453 | 0.406 | 0.372 | 0.409 | 0.568 | 0.483 | 0.29 |
| NCI-H838 | 0.999 | 1.03 | 1.04 | 0.657 | 0.911 | 1.08 | 1.11 | 0.544 | 0.214 | 0.526 | 0.598 | 0.684 | 0.256 | 0.115 | 1.15 | 1.23 | 0.928 | 0.624 |
| NCI-H1355 | 0.968 | 1.13 | 1.14 | 1.03 | 0.977 | 1.13 | 1.11 | 0.626 | 0.61 | 0.456 | 0.45 | 0.406 | 0.384 | 0.327 | 0.911 | 0.98 | 1.05 | 0.951 |
| NCI-H1395 | 0.88 | 1.09 | 1.09 | 0.969 | 1.01 | 1.05 | 1.02 | 0.713 | 0.635 | 0.979 | 1.02 | 0.998 | 0.687 | 0.568 | 1.03 | 1.14 | 1.13 | 1.26 |
| NCI-H1437 | 0.891 | 1.01 | 1.01 | 0.99 | 0.994 | 1.08 | 1.06 | 0.884 | 0.622 | 0.547 | 0.657 | 0.637 | 0.487 | 0.295 | 1.09 | 1.1 | 1.04 | 1.07 |
| NCI-H1650 | 0.981 | 1.05 | 1.07 | 0.848 | 1.02 | 1.23 | 1.06 | 0.212 | 0.155 | 0.604 | 0.585 | 0.633 | 0.054 | 0.124 | 1.21 | 1.44 | 1.28 | 0.501 |
| NCI-H1651 | 1.01 | 1.03 | 1.05 | 0.874 | 0.926 | 1.1 | 1.05 | 0.899 | 0.667 | 0.75 | 0.821 | 0.843 | 0.852 | 0.831 | 1.14 | 1.16 | 0.813 | 0.758 |
| NCI-H1666 | 0.891 | 1.17 | 1.05 | 1 | 1 | 1.02 | 1.05 | 1.03 | 0.876 | 0.901 | 0.866 | 0.943 | 0.955 | 0.679 | 0.957 | 1.05 | 0.861 | 0.796 |
| NCI-H1734 | 1.04 | 1.14 | 0.975 | 0.453 | 0.985 | 1.18 | 1.16 | 0.269 | 0.418 | 0.637 | 0.685 | 0.715 | 0.575 | 0.383 | 0.845 | 0.96 | 0.903 | 0.601 |

— the supplement of paper PMC10307832
